Assay results: patent publication US10639319B2, “Human milk oligosaccharides for preventing injury and/or promoting healing of the gastrointestinal tract” (ABBOTT LABORATORIES, priority 2011, dated 2020)

Tested on: infant fecal bacteria
Experiment: In vitro substrate fermentation model with infant fecal inocula, isobutyrate (BCFA) analysis (Example 78)
Type: cell-based
Conditions: for greater concentration of isobutyrate than any of the other substrates: infant fecal inoculum cultures, P<0.05

2′-α-L-Fucopyranosyl-D-Lactose [2′-FL]
fermentation by infant fecal bacteria (in vitro fermentation model): readily fermented | production of isobutyrate as compared to other substrates (in vitro fermentation model): enhances | greater concentration of isobutyrate than any of the other substrates (6 hours): approximately 5 fold | greater concentration of isobutyrate than any of the other substrates (12 hours): ~10 fold
